{"source": "patent US20260337177A1", "about": "“TEAD CORE INHIBITORS FOR CANCER THERAPEUTICS” (University of Florida Research Foundation, Incorporated, priority 2023, published 2026)", "key": {"HepG2 cells [1]": {"tested_on": "HepG2 cells", "assay": "HepG2 cell growth inhibition", "format": "cell-based", "settings": "Homo sapiens, FIG. 25A"}, "HB tumors": {"tested_on": "HB tumors", "assay": "Murine hepatoblastoma (HB) model, HDTV injection of S127A-YAP1 and ΔN90-β-catenin", "format": "in vivo, C57BL6 mice", "method": "Using this model, the inhibitory effect of YAP inhibitor compound 22 on HB development was examined. In brief, following HDTV injection, the co-expression of constitutively active S127A-YAP1 and ΔN90 deletion-mutant β-catenin (ΔN90-β-catenin) via Sleeping Beauty-mediated somatic integration led to HB development in mouse livers. Plasmids carrying T3EF1α-YAPS127A (20 μg), pCMV-sleeping beauty transposase (SB, 0.8 μg), and pT3-EF1α-ΔN90-β-catenin (20 μg) were extracted using the Endotoxin-Free Maxiprep kit (Qiagen), diluted in 2 ml 0.9% sodium chloride solution, and injected via hydrodynamic tail vein injection (HDTV) into C57BL6 mice (6 week-old, body weight of 20 g). compound 22 or mock control (twice a week for three months, IP injection) were applied two weeks post the HDTV injection until two days before sacrifice. Low dose group received […] body weight and high dose group received […] body weight.\nTissues harvested from mice were fixed in 4% paraformaldehyde PBS solution for 24 hours, embedded in paraffin, and sectioned (6 μm). Standard staining protocols were performed for IHC using an ABC kit from Vector lab (Vector Laboratories, Inc., CA). The primary antibody was mouse anti-Ki67 antibody (catalogNCL-L-Ki67-MM1, 1:100 dilution) from Leica Biosystems (Deer Park, IL). Stained sections were detected using a microscope (Leica, Germany).\nFor drug assessment in the murine HB model, plasmids carrying T3EF1α-YAPS127A (20 μg), pCMV-sleeping beauty transposase (SB, 0.8 μg), and pT3-EF1α-ΔN90-β-catenin (20 μg) from Addgene (Watertown, MA) were used. The plasmids were extracted using the Endotoxin-Free Maxiprep kit (Qiagen, Redwood City, CA), diluted in 2 ml 0.9% sodium chloride solution, and injected via hydrodynamic tail vein injection (HDTV) into C57BL6 mice (n=15, 6 week old). Three weeks post the HDTV injection, compound 22 ([…] body weight) or mock control were applied twice a week for total 9 weeks via IP injection. Two days post last drug treatment, mice were euthanized and tumor tissues were subjected to molecular and histological characterizations."}, "HepG2 cells [2]": {"tested_on": "HepG2 cells", "assay": "Cell cycle analysis by flow cytometry, HepG2", "format": "cell-based, human", "settings": "5 and 10 μM", "method": "To study the potential mechanistic pathways responsible for cell proliferation inhibition by compound 22, the change of cell cycle in Huh7 and HepG2 liver cancer cell lines was evaluated. DNA-based cell cycle analysis was performed using flow cytometry. […] To explore whether compound 22 also induces G1 phase arrest in HepG2 cells similar to its effects on Huh7 cells, parallel investigations were performed. […] However, the impact of 22 on inducing G1 phase arrest was less pronounced in HepG2 cells compared to Huh7 cells.\nFor cell cycle analysis, cells were fixed with pre-cold 70% ethanol for 30 minutes. Then the cells were washed with PBS and stained with propidium iodide working solution for 30 minutes in the dark. The stained cells were analyzed by flow cytometry. Cell cycle distribution was analyzed using FlowJo_V10 software. For each experiment, 20000 events per sample were recorded. Percentages of cells in G0/G1, S and G2/M phases were calculated and shown in DNA histograms."}, "Huh7 cells": {"tested_on": "Huh7 cells", "assay": "Huh7 cell proliferation assay (CCK8)", "format": "cell-based, human", "settings": "for IC50: Homo sapiens", "method": "CCK8 assay kit was used to determine antiproliferative activity of synthesized compounds against Huh7 cell line. First, Huh7 cells were seeded into 96-well plates at a density of 3000 cells/well and incubated overnight. Cells were then co-incubated with compounds at 8 concentrations for 72 h. Then, the cell proliferation was determined by the CCK8 kit according to the standard protocol. Experiments were performed in triplicate."}, "CYR61": {"tested_on": "CYR61", "assay": "CYR61 mRNA expression by RT-qPCR in Huh7 cells", "format": "cell-based, human", "settings": "dose-dependent", "method": "Huh7 and HepG2 liver cancer cells were seeded at 1×10^6 cells/dish and allowed to adhere overnight. The cells were then treated with indicated doses of compounds in medium for 24 hours. The cells were then harvested, and total RNA was purified using the Aurum total RNA mini kit (Bio-Rad #732-6820) according to the manufacturer's instructions. Complementary DNA was synthesized from 500 ng total RNA template by iScript reverse transcription kit (Bio-Rad #1725037) according to the manufacturer's instructions. Real-time PCR reactions utilized 60 ng cDNA and PrimePCR primers from Bio-Rad (Unique Assay ID: human GAPDH-qHsaCEP0041396, human CTGF-qHsaCEP0024255, human CYR61-qHsaCEP0024230) designed for SYBR Green gene expression analysis (Bio-Rad #1726270). All reactions were carried out in triplicate using Quant Studio 3 PCR system (Applied Biosystems). Relative gene expression level was quantified via ΔΔCt method by using GAPDH as an endogenous reference."}}, "note": "Like-named read-outs stand apart in the source and are kept apart here."}
{"smiles": "O=C(CCl)c1c[nH]c2cc(Cl)c(OCc3cccc(C(F)(F)F)c3)cc12", "note": "[Compound 22, 2-chloro-1-(6-chloro-5-((3-(trifluoromethyl)benzyl)oxy)-1H-indol-3-yl)ethan-1-one]", "values": [{"measurement": "IC50", "setting": "HepG2 cells [1]", "value": 2400, "unit": "nM"}, {"measurement": "HB tumors, occurrence and size", "setting": "HB tumors; 25 mg/kg body weight, twice a week for 9 weeks, IP", "value": "notable reduction in both the occurrence and size of HB tumors"}, {"measurement": "Number of proliferating cells (IHC)", "setting": "HB tumors; 25 mg/kg, Cyclin D1 / Ki67 (FIG. 23B)", "value": "decreased number of proliferating cells"}, {"measurement": "Ccnd1, CTGF, Cyr61, Afp, and Gpc3 mRNAs in livers", "setting": "HB tumors; real time qRT-PCR, 25 mg/kg", "value": "lower levels"}, {"measurement": "CTGF and Cyr61 proteins in livers", "setting": "HB tumors; western blotting, 25 mg/kg", "value": "decreased CTGF and Cyr61"}, {"measurement": "Accumulation in G1 phase, HepG2", "setting": "HepG2 cells [2]", "value": "accumulation of HepG2 cells in the G1 phase"}, {"measurement": "IC50", "setting": "Huh7 cells; Huh-7, 72 h, 3 days, CCK8, mean ± SD of three independent experiments, read-out: Cell proliferation assay IC50, Huh7", "value": "0.9 ± 0.3", "unit": "µM"}, {"measurement": "IC50", "setting": "Huh7 cells; Huh-7, Table 3 column is in μM, read-out: Huh7 cell growth inhibition / proliferation IC50", "value": 0.9, "unit": "µM"}, {"measurement": "Activity ratio, 3-CF3 derivative compound 22 vs para-analogue compound 23", "setting": "Huh7 cells; more active than compound 23, Huh7", "value": 16, "unit": "fold"}, {"measurement": "CYR61 mRNA expression, Huh7", "setting": "CYR61", "value": "significantly inhibited"}]}
